Laboratory results published in publication PMC11013143, “4-Chloroisocoumarins as Chlamydial Protease Inhibitors and Anti-Chlamydial Agents” (Molecules, 2024).
pIC50: −log10 of the molar value.

Assays:
C. trachomatis = experiment: Chlamydia trachomatis growth inhibition assay in HEp-2 host cells; assay type: cell-based; conditions: 62.5 µM; for anti-chlamydial activity against C. trachomatis: 30 h post infection, HEp-2 host cells
Protocol: The workflow for the evaluation of chlamydial growth inhibition is described in the supplementary information (Figure S6). Briefly, HEp-2 cells were seeded in a 96-well plate and grown for 24 h; they were then infected with a fixed quantity of C. trachomatis. The infection was propagated for 4 h, and then a mixture of test compound and cycloheximide was added and the plate was incubated for a further 26 h (30 h post infection). The cells were fixed with methanol and then stained with fluorescent antibodies to visualize chlamydial inclusions, and the growth was measured using inclusion counts relative to vehicle controls.
HEp-2 cells were grown until confluent in a T-75 flask with DMEM (containing 10% FCS, gentamycin (0.05 mg/mL), streptomycin (0.1 mg/mL) and glutamine (Sigma-Aldrich Cat No. G7513, 4 mM); they were then harvested with trypsin, and the cell density was determined with a haemocytometer. Cells were diluted to 1 × 10^5 cells/mL, and 200 µL was dispensed to each well in a 96-well plate and then incubated for 24 h at 5% CO2 at 37 °C.
The supernatant was removed, and 100 µL of the respective chlamydia species in media (100,000 IFU/mL) was added, giving an MOI of 0.5. The plate was sealed and centrifuged at 500× g/28 °C for 30 min and then incubated for a further 3.5 h at 37 °C with 5% CO2. The supernatant was removed, and 100 µL of cycloheximide in DMEM (1 µg/mL) was added in addition to 100 µL of drug stock solution to each respective well with DMSO and media negative controls and also azithromycin positive control. The plate was incubated for a further 26 h.
The supernatant was removed, and wells were washed with PBS (2 × 150 µL) and then fixed in methanol for eight minutes. The methanol was removed and washed with additional PBS (2 × 150 µL) and stored at 4 °C with 100 µL PBS per well and then stained and analyzed using fluorescence microscopy, which is outlined below.
Cells in fixed plates were permeabilized with 0.5% Triton X-100 in PBS for 15 min and then blocked with 1% BSA in PBS for 45 min. Anti-HtrA polyclonal antibody (sera) (1:600) (in-house), anti-mouse tubulin (Sigma-Aldrich Cat no. T-5168, 1:3000) and DAPI (125 ng/mL) in PBS were added to each well (70 µL) and then gently shaken at room temperature while shielding it from light for 45 min. The primary antibodies were removed, and the wells were washed with PBS (4 × 150 µL). Secondary antibodies (goat anti-rabbit Alexafluor 488, Thermo Fisher Cat No. A-11008 and goat anti-mouse Alexafluor 568 (Thermo Fisher Cat No. A-11004)) in PBS (70 µL, 1:600 respectively) were added and the wells were gently shaken at room temperature while shielding them from light for 45 min. The antibodies were removed, and the wells were washed with PBS (5 × 150 µL); cells were then stored with PBS (100 µL per well) at 4 °C pending analysis.
Plates were analyzed on an INcell Analyzer 2200 (Cytiva Life Sciences, Marlborough, MA, USA) using both laser autofocus (10%) and software autofocus modes, with ten random images per well covering a minimum of 80% of the well at 10x magnification. Non-morphologically affected inclusions were counted using a macro in ImageJ (v1.54f), and MIC was defined as being one two-fold dilution more concentrated than MICTP (where MICTP is defined as the lowest concentration to produce ≥90% morphologically abnormal inclusions) relative to solvent controls.

CtHtrA = target: T1, CtHtrA (Chlamydia trachomatis serovar D, UniProt P18584); experiment: CtHtrA protease inhibition assay; assay type: biochemical; conditions: for Relative Potency against CtHtrA: [IC50 of control]/[IC50 test compound]; for pIC50: IC50 against CtHtrA; for Relative Selectivity: (relative CtHtrA potency)/(relative HLE potency)
T1 construct: made in house; host or cells: E. coli BL21(DE3), pET22b
T1 sequence (P18584 17-497): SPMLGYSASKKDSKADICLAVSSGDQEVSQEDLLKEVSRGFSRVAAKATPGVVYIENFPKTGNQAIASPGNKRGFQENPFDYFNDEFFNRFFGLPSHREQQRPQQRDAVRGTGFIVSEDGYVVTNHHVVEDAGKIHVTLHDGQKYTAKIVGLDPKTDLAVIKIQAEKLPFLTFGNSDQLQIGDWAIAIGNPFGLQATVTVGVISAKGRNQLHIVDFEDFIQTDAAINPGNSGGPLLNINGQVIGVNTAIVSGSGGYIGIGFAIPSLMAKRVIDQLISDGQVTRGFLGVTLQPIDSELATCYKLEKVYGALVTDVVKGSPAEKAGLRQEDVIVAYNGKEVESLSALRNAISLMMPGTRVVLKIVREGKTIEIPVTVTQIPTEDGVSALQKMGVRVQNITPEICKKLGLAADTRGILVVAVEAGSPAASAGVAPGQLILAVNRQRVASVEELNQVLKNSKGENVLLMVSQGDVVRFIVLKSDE
Protocol: The inhibitory activity of compounds 2a–g against CtHtrA was evaluated. […] As these compounds are reportedly covalent inhibitors of serine proteases, a true IC50 is unable to be calculated. Instead, the residual activity of the protease is monitored over time in response to a range of compound concentrations, and an IC50 value is interpolated from a dose–response curve (see Figures S2–S4 and Tables S1 and S2). This IC50 value is then compared to a positive control (JO146 was used for 2a–g, and 2g was used for 6a–h), giving the ‘relative potency’. This is the established method for assessing CtHtrA inhibitory potency. […] This effect may be due to depth restrictions within the S1 subpocket, as kinetic studies on the rates of protease inhibition in HLE were reduced by larger C-3 alkoxy substituents. Chain branching (iso-propyl and sec-butyl substituents) increased the activity, resulting in a 1.4-fold increase for 2e over 2b and a 2.8-fold improvement for 2g over 2c.
CtHtrA was expressed using an procedure adapted from the literature. Recombinant E. coli BL21(DE3) pET22b was grown in LB media containing 100 ug/mL ampicillin to an OD600 of 0.5-0.6 in 5 × 400 mL batches at 37 °C. Isopropyl β-D-1-thioglactopyranoside (1 M, 400 µL, 1 mM final concentration) was added to each flask and incubated at 30 °C with shaking at 150 rpm for an additional 2.5 h. The culture was centrifuged at 4000× g for 15 min at 4 °C, and the cell pellet was harvested and resuspended in lysis buffer (50 mM phosphate, 10 mM imidazole, 500 mM NaCl, 0.1% Triton X-100, 10% glycerol). Lysozyme was added to the suspended cells and was sonicated in 15 cycles of 15 s, with one minute between cycles while maintaining 4 °C, and then centrifuged at 8000× g for 20 min to remove any debris, retaining the supernatant for protein purification.
TALON® metal affinity resin (Takara cat no. 635652, 5 mL) was added to each lysate tube and washed sequentially with lysis buffer (2 × 45 mL) and stringency buffer (4 × 45 mL) and then eluted with elution buffer (2 × 5 mL), allowing incubations at 4 °C for 20 min per wash, and centrifuging at 2500× g and 4 °C between washes to pellet the resin. The eluates were dialyzed in Tris buffer (pH 7.0, 50 mM, 4 L) with magnesium chloride (20 mM) at 4 °C five times over 24 h, with a minimum of three hours per dialysis change. Protein expression and isolation were confirmed with SDS-PAGE Coomassie stained gel, which was examined for the band at the correct size, and a BCA assay to confirm purified protein concentration prior to use.
CtHtrA was added to 25 wells in a black 96-well plate (40–80 µL, 10 µL increments), to which Tris-HCl buffer (50 mM, pH 7.0 with 20 mM MgCl2) was added to bring the total volume to 90 µL for 10 wells and 85 µL for the remaining 15. JO146 (10 µM, 5 µL) was added to 5 wells and JO146 (1 µM, 5 µL) was added to another 5 wells, with DMSO (5 µL) being added to the remaining 5 as a control. The plate was incubated at 37 °C for 10 min before substrate (MCA-ENLHLPLPIIFK-DNP, 10 µL, 1 mg/mL, 50% isopropanol in buffer) was added and analyzed in a TECAN Infinite Pro M200 plate reader with an excitation wavelength of 340 nm and fluorescence measured at 405 nm with four reads per well at 60 s intervals. A minimum volume of CtHtrA granting a fluorescence change of 300 min^−1 was used for subsequent assay.
The determined appropriate volume of CtHtrA in buffer was added to a 96-well non-transparent black plate and diluted to 85 µL with buffer solution. Drug or control (5 µL) at a maximum of 20% DMSO/80% buffer was added to the appropriate well with DMSO controls, and the plate was incubated for 10 min to allow activation by the protein. MCA-ENLHLPLPIIFK-DNP (Mimotopes, Australia, 1 mg/mL, 10 µL) was added and immediately monitored on a TECAN M200 Infinite plate reader at 37 °C every 60 s for 30 min, using the same wavelengths as for the activity evaluation. […]

[1] = target: T2, Human Leukocyte Elastase (HLE) (Homo sapiens, UniProt P08246); parameters: method as in PMID 3910097; conditions: cited from earlier work
T2 construct: purchased Athens Research and Technology 16-15-051200
T2 sequence (P08246 30-247 limits assumed): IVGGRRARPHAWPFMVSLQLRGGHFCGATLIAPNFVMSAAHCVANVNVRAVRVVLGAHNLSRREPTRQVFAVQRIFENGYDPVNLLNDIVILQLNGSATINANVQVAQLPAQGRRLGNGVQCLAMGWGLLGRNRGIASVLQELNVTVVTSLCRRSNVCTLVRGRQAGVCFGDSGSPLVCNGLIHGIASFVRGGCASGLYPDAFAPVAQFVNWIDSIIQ

[2] = target: T2, Human Leukocyte Elastase (HLE); experiment: HLE protease inhibition assay; assay type: biochemical; conditions: for pIC50: Table S1, variable slope four parameter fit, read-out: IC50 against HLE; for Relative Potency against HLE: [IC50 of JO146]/[IC50 test compound]
Protocol: Elastase was purchased from Athens Research and Technology (Cat No. 16-15-051200). Elastase (100 µg) was dissolved in Tris buffer (100 mM Tris, 20 mM CaCl2, pH 8.1, 3.14 mL), giving a concentration of 1.117 µM, and 25 µL was added to each well containing the respective inhibitor. The plate was incubated at 37 °C for 15 min.
N-Suc-AAA-pNA (Sigma Aldrich, Bayswater, Australia, S4760, 100 µL, 1 mg/mL, […]) was added to each well, and the absorbance was monitored every six minutes at 405 nm. The rate of change of absorbance was used as a comparison to controls to determine the % inhibition of protein in Microsoft Excel^TM (v2402), and these values were exported to GraphPad Prism (v8.0.1) for IC50 calculation.

[3] = Table S2, Batch 1, control JO146
[4] = Table S2, Batch 2, control JO146

SMILES	Relative Selectivity (CtHtrA)	pIC50 (CtHtrA; [3])	Relative Potency against CtHtrA (CtHtrA; control JO146)	pIC50 [2]	Relative Potency against HLE [2]	other results
CCC(C)Oc1oc(=O)c2cc(Br)ccc2c1Cl (racemic) [Compound 6f, (±)-7-Bromo-3-sec-butoxy-4-chloro-isocoumarin]						anti-chlamydial activity against C. trachomatis (C. trachomatis): abolished observable activity; Relative Potency against CtHtrA (CtHtrA; control 2g): 0.057
CCC(C)Oc1oc(=O)c2cc(Cl)ccc2c1Cl (racemic) [Compound 6g, (±)-3-sec-Butoxy-4,7-dichloro-isocoumarin]						anti-chlamydial activity against C. trachomatis (C. trachomatis): did not significantly affect the efficacy of 2g; statistical significance of anti-chlamydial activity (C. trachomatis; relative to solvent controls): statistically significant anti-chlamydial activity; pIC50 (CtHtrA; Table S2, Batch 5, control 2g): 4.14; Relative Potency against CtHtrA (CtHtrA; control 2g): 0.390
O=c1oc(Cl)c(Cl)c2ccccc12 [3,4-dichloroisocoumarin]						molecular turnover against HLE [1]: 3.1
CCOc1oc(=O)c2ccccc2c1Cl [Compound 2b, 3-Ethoxy-4-chloroisocoumarin]	56.4	4.72	3.73	4.91	0.0664	
CCCOc1oc(=O)c2ccccc2c1Cl [Compound 2c, 3-Propoxy-4-chloroisocoumarin]	6.92	4.49	2.23	5.60	0.323	
CCCCOc1oc(=O)c2ccccc2c1Cl [Compound 2d, 3-Butoxy-4-chloroisocoumarin]	5.08	4.34	1.57	5.58	0.310	
CC(C)Oc1oc(=O)c2ccccc2c1Cl [Compound 2e, 3-iso-Propoxy-4-chloroisocoumarin]	12.7		5.32	5.71	0.419	fold increase in CtHtrA inhibitory activity (CtHtrA; 2e over 2b): 1.4 fold; pIC50 (CtHtrA; [4]): 4.95
CC(C)COc1oc(=O)c2ccccc2c1Cl [Compound 2f, 3-iso-Butoxy-4-chloroisocoumarin]	4.08		1.50	5.65	0.368	pIC50 (CtHtrA; [4]): 4.40
O=c1oc(Cl)cc2ccccc12 [Compound 3-choro-]						molecular turnover against HLE [1]: 15
